Test results as given in patent US8722723B2, “Aromatic amide derivative” (Research Foundation Itsuu Laboratory, priority 2008, dated 2014).

How the values were obtained:
[1] = system: luciferase (Luc); experiment: Reporter assay: Hela cells transfected with human RORα1 expression vector and luciferase (Luc) reporter vector; Luc activity corrected with β-Gal activity; format: cell-based, firefly; set-up: key: β-Gal-corrected Luc activity; smaller = inhibition, larger = promotion; conditions: human RORα1 expression vector, rev-DR2/TK-Luc reporter, about 1 day, smaller number = inhibitory, larger = promoting
Description: The reporter assay was used, in which Hela cells transfected with each of a pcDNA3 vector incorporated with the human RORα1 so that the gene can be expressed in animal cells as an expression vector, and a pGL3 promoter vector of which SV40 promoter was replaced with TK promoter as a luciferase expression reporter vector were used.
The Hela cells were placed at a density of 2×10^4 cells/0.1 mL/well on a 96-well cell culture plate (FALCON) by using 10% FBS-DMEM. On the next day, the human RORα1 expression vector, the reporter vector incorporated with 3 copies of rev-DR2 sequences and the HSV thymidine kinase promoter at a position upstream from the luciferase (Luc) gene, and a β-galactosidase (β-Gal) expression vector for control were introduced into the cells by using a transfection reagent (Fugene6, Roche). On the next day, the medium was replaced with 5% FBS-DMEM containing a test compound diluted at a prescribed concentration, after about 1 day, the cell supernatant was removed, then the cells were lysed (Passive Lysis buffer, Promega), the Luc substrate (PicaGene, Toyo Ink) was added to a part of the lysed cells, and the activity of produced Luc was measured as luminescence intensity. Further, the β-Gal activity was measured as intensity of fluorescence generated when 4-methylumbelliferyl β-D-galactoside was added as a substrate, and the activity of Luc corrected for the transfection efficiency with the β-Gal activity was used as the index for evaluation. A smaller number indicates inhibitory action, and a larger number indicates promoting action.

Row | SMILES | melting point [°C] | activity of Luc corrected for the transfection efficiency with the β-Gal activity ([1]; test compound 0.01 μM) | activity of Luc corrected for the transfection efficiency with the β-Gal activity ([1]; test compound 0.1 μM) | activity of Luc corrected for the transfection efficiency with the β-Gal activity ([1]; test compound 1 μM) | activity of Luc corrected for the transfection efficiency with the β-Gal activity ([1]; test compound 10 μM)
1 | CN(C)c1ccc2c(c1)C(=O)N(c1ccc(OCC(=O)O)cc1)C2 [Compound 28, [4-(6-dimethylamino-1-oxo-1,3-dihydro-isoindol-2-yl)-phenoxy]-acetic acid] | 206 to 208 | 1.1 | 0.8 | 0.2 | 0.1
2 | O=C(O)CCCc1ccc(N2Cc3ccc(F)cc3C2=O)cc1 [Compound 29, 4-[4-(6-fluoro-1-oxo-1,3-dihydro-isoindol-2-yl)-phenyl]-butyric acid] | 172 to 173 | 0.5 | 0.2 | 0.0 | 0.0
3 | Cc1ccc([N+](=O)[O-])c(C(=O)Nc2ccc(CCCC(=O)O)cc2)c1 [Compound 40, 4-[4-(5-methyl-2-nitro-benzoylamino)-phenyl]-butyric acid] | 152 to 153 | 0.8 | 0.9 | 0.8 | 0.8
